US20110028758A1, “Trans-cinnamic acid derivative, its preparation mathod and the use” (priority 2007, published 2011)
≈ marks a conversion by molar mass, not a printed value. Entries after “also recorded” stand apart in the source; their conditions may differ. Like-named read-outs stand apart in the source and are kept apart here.

Experiments:
[1] = test system: human hepatoma BEL-7402 cells; experiment: MTT anti-tumor test in vitro, BEL-7402; type: cell-based; conditions: Homo sapiens, Bel-7402, 48 h, Bel- (BEL-7402)
Excerpt: (§1) A complete culture medium is used for diluting the above original solution into corresponding concentrations for later use.
(§2) Human cervical carcinoma Hela cells, human hepatoma BEL-7402 cells, mucinous Human epidermoid A549 lung cancer cells, human breast cancer MCF-7/S cells, human glioma U251 cells, and human normal embryonic kidney HEK-293 cells are purchased from USA, American Type Culture Collection (ATCC). All the tumor cells are used the DMEM medium (containing 10% FBS, 100 U/ml penicillin and 100 μg/ml streptomycin) for culturing and subculturing, and HEK-293 cells are using RPMI1640 medium (10% FBS, 100 U/ml penicillin, and 100 μg/ml streptomycin) for culturing and subculturing, wherein the culture condition is in a 5% CO2 incubator at 37° C.
(§3) Subculture six kinds of cells, which has a logarithmic growing period, adherent rate about 80%, and in good condition, such as human cervical carcinoma Hela cells, human hepatoma BEL-7402 cells, mucinous Human epidermoid A549 lung cancer cells, human breast cancer MCF-7/S cells, human glioma U251 cells, and human normal embryonic kidney HEK-293 cells. Discard the culture medium, rinse 1-2 times with PBS to remove serum, add 1 ml 0.25% Trypsin-0.01% EDTA (37° C. incubation) to digest for 1-2 minutes, add FBS culture medium to terminate the above digestion, centrifuge at a speed below 800 r/min for 2-3 minutes and discard the supernatant, re-suspended cells in 10% FBS medium, tack the cell suspension liquid for cell counting, adjust the density of the above liquid to 1×10^5/ml, then inoculate to a 96-holes plates (100 μl/hole), and then incubate in 5% CO2 incubator at 37° C. overnight. The next day add above cells to different concentrations of I-a, I-b, I-c and I-d, 100 μl/hole (its final concentration is respectively 30, 60, 120, 240, 480 μg/ml); meanwhile, set up the blank control group (0 μM), and establish 3 holes. Continuing the cultural process, discard the culture medium after 48 hours that the drug has been effected, add 100 μl PBS of 0.5 mg/ml MTT (PH 7.2) into each holes, after 4 hours culture, remove the culture medium by adherent cells express flipping method, add 100 μl of DMSO to each holes, oscillate it by micro-oscillation device for 5 minutes, and measure the OD value at 490 nm wavelength. Repeat the above experiment three times to get an average value. Calculate the inhibition rate (IR %) of the tumor cell proliferation in vitro from different concentrations of I-a, I-b, I-c, I-d by the following formula:
(§4) IR %=(1−ODsampale/ODcontrol)×100%
(§5) Use SPSS11.5 software to calculate the half inhibitory concentration IC50 of I-a, I-b, I-c and I-d. The results are shown in Table 2 to illustrate IC50 values (unit: μg/ml) of the four compounds.

[2] = Solubility of compounds in solvents (Table 1); type: physicochemical
[3] = test system: human cervical carcinoma Hela cells; experiment: MTT anti-tumor test in vitro, Hela; type: cell-based; conditions: Homo sapiens, HeLa, 48 h
Excerpt: as §1, §2, §3, §4, §5

[4] = single tail vein administration 350 mg/kg; for death / survival in acute toxicity test: 14 days observation, 350 mg/kg
Procedure: After the drug delivery, continuously observe the mice responses for 4 hours; after all, observe the mice twice a day (one is in the morning, and the other is in the afternoon) for 14 days, wherein the observation includes the appearance, behavior, secretions, excreta of the mice etc., and recording all the death situation, poisoning symptoms, the starting time and ending time of toxic reactions of the mice, severity, duration time of toxic, and to see if it is reversible reaction etc., sent it to the pathology examination if necessary, weight the mice before and after the drug delivered day of 3, 7, 10, and 14 days. After finishing the observation process, execute all of the mice, and anatomize the dead bodies of mice.

[5] = test system: mucinous Human epidermoid A549 lung cancer cells; experiment: MTT anti-tumor test in vitro, A549; type: cell-based; conditions: Homo sapiens, A549, 48 h
Excerpt: as §1, §2, §3, §4, §5

[6] = test system: human breast cancer MCF-7/S cells; experiment: MTT anti-tumor test in vitro, MCF-7/S; type: cell-based; conditions: Homo sapiens, MCF7S, 48 h, MCF-7 (MCF-7/S)
Excerpt: as §1, §2, §3, §4, §5

[7] = test system: mice ascites hepatoma cell strain H22; experiment: Anti-tumor test in vivo, mice transplanted tumor of liver cancer H22; design: species or system Kunming mice
Procedure: The mice ascites hepatoma cell strain H22 is purchased from the Experimental Center of Zhongshan University.
Recovery the mice ascites hepatoma cell strain H22, put the cell suspension liquid into a centrifugal tube and use the 4° C. saline to wash the suspension liquid twice, then centrifuge to discard the supernatant, add appropriate 4° C. saline to dilute the suspension liquid, count cells with 0.2% trypan blue, adjust the density to 10^7 cell/ml, according to 0.2 (ml/mice) intraperitoneal inoculation H22 cell suspension liquid.
After ten days of the intraperitoneal inoculation, the cervical vertebra is dislocated. Disinfect the mice abdominal skin, and suck the milky ascites with a sterile syringe, then adjust the concentration of tumor cells to 1×10^7 cell/ml with injection used saline. Disinfect the right armpit skin of the Kunming mice with alcohol swab, subcutaneously vaccinate the cell suspension liquid 0.2 ml, conventional feeding. […] Totally there are 180 tumor-bearing mice.
The 180 tumor-bearing mice are divided into 18 groups by the weigh of the mice, wherein each group has 10 mice (half male and half female). The drug delivery methods of each group are shown in Table 3 to illustrate eighteen groups of mice drug delivery situation.
Group 1 is the model group, and the mice of group 1 are given the tail vein saline injection daily started on the second day of the tumor-bearing for 10 days.
Group 2 is the cyclophosphamide (CTX) group, and the mice of group 2 are only given the cyclophosphamide in the intraperitoneal of the mice on the second day of the tumor-bearing.
Group 3 to 18 groups are given the four compounds respectively, wherein the groups delivered 25 mg/kg drug are tail vein low-dose group, wherein the groups delivered 50 mg/kg drugs are the tail vein medium-dose group, wherein the groups delivered 100 mg/kg drugs are the tail vein high-dose group, wherein the groups delivered 200 mg/kg drugs are the oral enteral group. These mice from group 3 to 18 start the drug delivery on the second day of the tumor-bearing, and delivered once a day for 10 sequent days.
The above drug deliveries are 20 ml/kg.
After finishing the drug delivery process, weight the mice, then kill the mice by pulling off the neck, and anatomy to get the tumor tissue of the mice on the next day of finishing the drug delivery process, and then weight the anatomized tumor by electronic weighing scales to calculate the inhibition rate.

[8] = average of three experiments ± SD
[9] = Hela, average of three experiments ± SD, MTT, 48 hours, read-out: IC50 value
[10] = Hela, experiment 2, MTT, 48 hours, read-out: IC50 value
[11] = Hela, experiment 3, MTT, 48 hours, read-out: IC50 value
[12] = read-out: HeLa cell proliferation IC50 values
[13] = A549, average of three experiments ± SD, MTT, 48 hours, read-out: IC50 value
[14] = A549, experiment 2, MTT, 48 hours, read-out: IC50 value
[15] = A549, experiment 3, MTT, 48 hours, read-out: IC50 value
[16] = at 48 hours, read-out: A549 cell proliferation IC50 values
[17] = i.g. 200 mg·(kg·d)^−1, once a day for 10 days
[18] = i.v. 25 mg·(kg·d)^−1, once a day for 10 days
[19] = i.v. 25 mg·(kg·d)^−1, once a day for 10 days (low-dose group)
[20] = i.v. 50 mg·(kg·d)^−1, once a day for 10 days
[21] = i.v. 50 mg·(kg·d)^−1, once a day for 10 days (medium-dose group)
[22] = i.v. 100 mg·(kg·d)^−1, once a day for 10 days
[23] = Hela, experiment 1, MTT, 48 hours, read-out: IC50 value
[24] = A549, experiment 1, MTT, 48 hours, read-out: IC50 value

`COc1ccc(/C=C/C(=O)O)c(O)c1CC=C(C)C` [I-a, (E)-2-hydroxy-4-methoxy-3-isopentenyl-cinnamic acid] gave an IC50 [1, 8] of 249 ± 17.9 µg/mL (≈ 950 µM), an IC50 ([1]; experiment 2) of 237 µg/mL (≈ 904 µM) and an IC50 ([1]; experiment 3) of 269 µg/mL (≈ 1030 µM). The Solubility ([2]; solvent 0.1% NaOH) was “Soluble”, the Solubility ([2]; solvent Acetone) was “Soluble” and the Solubility ([2]; solvent Chloroform) was “Dissolved”. For the same compound, the Solubility ([2]; solvent DMSO) was “Soluble”, the Solubility ([2]; solvent Ethanol) was “Soluble” and the Solubility ([2]; solvent Methanol) was “Soluble”. It also gave an IC50 [3, 9] of 103 ± 8.48 µg/mL (≈ 391 µM), an IC50 [3, 10] of 115 µg/mL (≈ 438 µM) and an IC50 [3, 11] of 96 µg/mL (≈ 366 µM). The IC50 [3, 12] was 103 ± 8.48 µg/mL (≈ 391 µM), the “drug reaction after administration” value [4] was “abnormally excited at first, and then become in an inhibit state” and the “death / survival in acute toxicity test” value [4] was “All the mice are survived; also recorded: no toxic deaths”. The IC50 [5, 13] was 118 ± 10.6 µg/mL (≈ 451 µM), the IC50 [5, 14] was 118 µg/mL (≈ 450 µM) and the IC50 [5, 15] was 107 µg/mL (≈ 408 µM). It also gave an IC50 [5, 16] of 118 ± 10.6 µg/mL (≈ 451 µM), an IC50 [6, 8] of 225 ± 11.9 µg/mL (≈ 857 µM) and an IC50 ([6]; experiment 2) of 216 µg/mL (≈ 823 µM). It also gave an IC50 ([6]; experiment 3) of 219 µg/mL (≈ 835 µM), a Tumor weight/g [7, 17] of 0.907 ± 0.424 g and a Tumor weight/g [7, 18] of 1.398 ± 0.355 g. For the same compound, the “IR/% (inhibition rate)” value [7, 19] was 8.8%, the Tumor weight/g [7, 20] was 1.047 ± 0.342 g and the “IR/% (inhibition rate)” value [7, 21] was 31.7%. It also gave a Tumor weight/g [7, 22] of 0.775 ± 0.381 g.
Work on `COc1ccc(/C=C\C(=O)O)c(OC)c1CC=C(C)C` [I-b, (Z)-2,4-dimethoxy-3-isopentenyl-cinnamic acid] yielded an IC50 [1, 8] of 346 ± 10.1 µg/mL (≈ 1250 µM), an IC50 ([1]; experiment 1) of 343 µg/mL (≈ 1240 µM) and an IC50 ([1]; experiment 2) of 357 µg/mL (≈ 1290 µM). For the same compound, the IC50 ([1]; experiment 3) was 338 µg/mL (≈ 1220 µM), the Solubility ([2]; solvent 0.1% NaOH) was “Soluble” and the Solubility ([2]; solvent Acetone) was “Dissolved”. For the same compound, the Solubility ([2]; solvent Chloroform) was “Dissolved”, the Solubility ([2]; solvent DMSO) was “Soluble” and the Solubility ([2]; solvent Ethanol) was “Dissolved”. The Solubility ([2]; solvent Methanol) was “Soluble”, the IC50 [3, 9] was 324 ± 11.6 µg/mL (≈ 1170 µM) and the IC50 [3, 23] was 331 µg/mL (≈ 1200 µM). The IC50 [3, 10] was 310 µg/mL (≈ 1120 µM), the IC50 [3, 11] was 328 µg/mL (≈ 1190 µM) and the IC50 [3, 12] was 324 ± 11.6 µg/mL (≈ 1170 µM). The “drug reaction after administration” value [4] was “abnormally excited at first, and then become in an inhibit state”, the “death / survival in acute toxicity test” value [4] was “All the mice are survived; also recorded: no toxic deaths” and the IC50 [5, 13] was 218 ± 12.6 µg/mL (≈ 788 µM). The IC50 [5, 24] was 230 µg/mL (≈ 832 µM), the IC50 [5, 14] was 216 µg/mL (≈ 782 µM) and the IC50 [5, 15] was 205 µg/mL (≈ 742 µM). The IC50 [5, 16] was 218 ± 12.6 µg/mL (≈ 788 µM), the IC50 [6, 8] was 311 ± 7.31 µg/mL (≈ 1130 µM) and the IC50 ([6]; experiment 1) was 312 µg/mL (≈ 1130 µM). For the same compound, the IC50 ([6]; experiment 2) was 317 µg/mL (≈ 1150 µM), the IC50 ([6]; experiment 3) was 303 µg/mL (≈ 1100 µM) and the Tumor weight/g [7, 17] was 1.108 ± 0.364 g. The Tumor weight/g [7, 18] was 1.367 ± 0.524 g, the “IR/% (inhibition rate)” value [7, 19] was 10.8% and the Tumor weight/g [7, 20] was 1.152 ± 0.47 g. For the same compound, the “IR/% (inhibition rate)” value [7, 21] was 24.8% and the Tumor weight/g [7, 22] was 0.911 ± 0.417 g.
With `COc1ccc(/C=C/C(=O)O)c(OC)c1CC=C(C)C` [I-c, (E)-2,4-dimethoxy-3-isopentenyl-cinnamic acid] the IC50 [1, 8] was 313 ± 11.7 µg/mL (≈ 1130 µM), the IC50 ([1]; experiment 1) was 315 µg/mL (≈ 1140 µM) and the IC50 ([1]; experiment 2) was 300 µg/mL (≈ 1090 µM). The IC50 ([1]; experiment 3) was 323 µg/mL (≈ 1170 µM), the Solubility ([2]; solvent 0.1% NaOH) was “Soluble” and the Solubility ([2]; solvent Acetone) was “Dissolved”. For the same compound, the Solubility ([2]; solvent Chloroform) was “Dissolved”, the Solubility ([2]; solvent DMSO) was “Soluble” and the Solubility ([2]; solvent Ethanol) was “Dissolved”. For the same compound, the Solubility ([2]; solvent Methanol) was “Soluble”, the IC50 [3, 9] was 96.2 ± 1.25 µg/mL (≈ 348 µM) and the IC50 [3, 23] was 95 µg/mL (≈ 344 µM). The IC50 [3, 10] was 85.6 µg/mL (≈ 310 µM), the IC50 [3, 11] was 97 µg/mL (≈ 351 µM) and the IC50 [3, 12] was 96.2 ± 1.25 µg/mL (≈ 348 µM). For the same compound, the “drug reaction after administration” value [4] was “abnormally excited at first, and then become in an inhibit state”, the “death / survival in acute toxicity test” value [4] was “All the mice are survived; also recorded: no toxic deaths” and the IC50 [5, 13] was 158 ± 5.66 µg/mL (≈ 572 µM). It also gave an IC50 [5, 24] of 151 µg/mL (≈ 546 µM), an IC50 [5, 14] of 162 µg/mL (≈ 586 µM) and an IC50 [5, 15] of 159 µg/mL (≈ 575 µM). The IC50 [5, 16] was 158 ± 5.66 µg/mL (≈ 572 µM), the IC50 [6, 8] was 235 ± 5.68 µg/mL (≈ 849 µM) and the IC50 ([6]; experiment 1) was 234 µg/mL (≈ 847 µM). For the same compound, the IC50 ([6]; experiment 2) was 229 µg/mL (≈ 829 µM), the IC50 ([6]; experiment 3) was 240 µg/mL (≈ 869 µM) and the Tumor weight/g [7, 17] was 0.866 ± 0.489 g. For the same compound, the Tumor weight/g [7, 18] was 1.322 ± 0.278 g, the “IR/% (inhibition rate)” value [7, 19] was 13.7% and the Tumor weight/g [7, 20] was 0.875 ± 0.379 g. The Tumor weight/g [7, 22] was 0.782 ± 0.368 g.
